Compound in assay [1]: C[C@@H](Oc1cc(-c2cnn(C3CCNCC3)c2)cnc1N)c1c(Cl)ccc(F)c1Cl [CRIZOTINIB]
In words: surviving fraction relative to DMSO-only wells; higher = less growth inhibition. As to conditions: exposure time: 5 days. In short, it runs like this: (§1)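 Log-phase tumour cell lines, 250–500 cells per well in 384-well plates, received inhibitors at 0.5, 1, 5, 10, 50, 100, 500 and 1000 nM continuously for five days, starting 24 hours after seeding. Viability was quantified with CellTiter-Glo luminescence and normalised to the median of DMSO-only wells to give surviving fraction. Three screens were run per line, and a line stayed in only with replicate Pearson r >0.7 and median Z' >0.3.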

Compound in assay [2]: Cc1nc(Nc2ncc(C(=O)Nc3c(C)cccc3Cl)s2)cc(N2CCN(CCO)CC2)n1 [DASATINIB]
The assay is described as above. The following applies: exposure time: 5 days. Summed up: as §1

We go through seven test systems from the supplement of paper PMC6045584.

± gives the standard deviation of the averaged measurements.

Regarding HCC70 BREAST, the surviving fraction in assay [1] (0.5 nM) stood at 1.09 ± 0.06; in assay [1] (1 nM), 1.1 ± 0.13; in assay [1] (5 nM), 1.16 ± 0.022; in assay [1] (50 nM), 1.18 ± 0.1; in assay [1] (500 nM), 1.07 ± 0.059; in assay [1] (1000 nM), 0.818 ± 0.12. Also, the surviving fraction was determined as 1.03 ± 0.094 in assay [2] (0.5 nM); 1.04 ± 0.027 in assay [2] (1 nM); 1.15 ± 0.1 in assay [2] (5 nM); 0.996 ± 0.079 in assay [2] (10 nM); 0.902 ± 0.15 in assay [2] (50 nM); 0.655 ± 0.057 in assay [2] (100 nM). Further, the surviving fraction was 0.574 ± 0.14 in assay [2] (500 nM) and 0.581 ± 0.16 in assay [2] (1000 nM).
Consider G292 BONE, for which the surviving fraction was found to be 1.02 ± 0.037 in assay [1] (0.5 nM); 1.04 ± 0.055 in assay [1] (1 nM); 1.07 ± 0.012 in assay [1] (5 nM); 1.08 ± 0.038 in assay [1] (10 nM); 0.9452 ± 0.0094 in assay [1] (50 nM); 0.951 ± 0.033 in assay [1] (100 nM). The surviving fraction turned out to be 0.634 ± 0.025 in assay [1] (500 nM); 0.41 ± 0.016 in assay [1] (1000 nM); 0.94 ± 0.04 in assay [2] (0.5 nM); 0.894 ± 0.036 in assay [2] (1 nM); 0.811 ± 0.049 in assay [2] (5 nM); 0.683 ± 0.032 in assay [2] (10 nM). Also, the surviving fraction came to 0.348 ± 0.013 in assay [2] (50 nM), 0.269 ± 0.033 in assay [2] (100 nM), 0.213 ± 0.018 in assay [2] (500 nM) and 0.2077 ± 0.0011 in assay [2] (1000 nM).
Consider HCC38 BREAST, for which the surviving fraction in assay [1] (0.5 nM) came to 1.27 ± 0.15; in assay [1] (1 nM), 1.18 ± 0.06; in assay [1] (5 nM) it was 1.31 ± 0.069; in assay [1] (10 nM), 1.28 ± 0.041; in assay [1] (50 nM), 1.29 ± 0.13; in assay [1] (100 nM), 1.28 ± 0.13. Further, the surviving fraction is 0.63 ± 0.09 in assay [1] (1000 nM); 0.962 ± 0.17 in assay [2] (0.5 nM); 0.868 ± 0.087 in assay [2] (1 nM); 0.697 ± 0.043 in assay [2] (5 nM); 0.896 ± 0.17 in assay [2] (10 nM); 1.01 ± 0.18 in assay [2] (50 nM). The figures for the surviving fraction in assay [2] (100 nM), in assay [2] (500 nM) and in assay [2] (1000 nM) were 0.911 ± 0.16, 0.664 ± 0.1 and 0.583 ± 0.12, respectively.
As for HMT3552 BREAST, the surviving fraction in assay [1] (0.5 nM) worked out at 1.01 ± 0.042; in assay [1] (1 nM) it was 1.05 ± 0.073; in assay [1] (5 nM), 1.04 ± 0.015; in assay [1] (10 nM) it was 1.06 ± 0.015; in assay [1] (50 nM), 1.07 ± 0.023; in assay [1] (100 nM) it was 1.18 ± 0.035. In addition, the surviving fraction in assay [1] (500 nM) came to 0.597 ± 0.045; in assay [1] (1000 nM) it was 0.201 ± 0.012; in assay [2] (0.5 nM) it was 0.913 ± 0.043; in assay [2] (1 nM), 0.848 ± 0.067; in assay [2] (5 nM), 0.705 ± 0.013; in assay [2] (10 nM), 0.612 ± 0.063. Also, the surviving fraction in assay [2] (50 nM) worked out at 0.259 ± 0.0081; in assay [2] (100 nM), 0.15 ± 0.017; in assay [2] (500 nM), 0.105 ± 0.0076; in assay [2] (1000 nM) it was 0.123 ± 0.021.
As for CCK81 LARGE INTESTINE, the surviving fraction in assay [1] (1 nM) worked out at 0.854 ± 0.084; in assay [1] (5 nM) it was 0.776 ± 0.15; in assay [1] (10 nM), 0.788 ± 0.087; in assay [1] (50 nM), 0.749 ± 0.11; in assay [1] (100 nM) it was 0.718 ± 0.028; in assay [1] (500 nM), 0.62 ± 0.12. Further, the surviving fraction in assay [1] (1000 nM) stood at 0.315 ± 0.053; in assay [2] (0.5 nM), 0.942 ± 0.19; in assay [2] (1 nM), 0.774 ± 0.035; in assay [2] (5 nM), 0.741 ± 0.13; in assay [2] (10 nM), 0.744 ± 0.059; in assay [2] (50 nM) it was 0.577 ± 0.1. Further, the values for the surviving fraction in assay [2] (100 nM), in assay [2] (500 nM) and in assay [2] (1000 nM) were 0.411 ± 0.1, 0.0847 ± 0.02 and 0.0473 ± 0.012, respectively.
Regarding HS578T BREAST, the surviving fraction in assay [1] (0.5 nM) worked out at 1.04 ± 0.16; in assay [1] (1 nM), 1.13 ± 0.17; in assay [1] (5 nM) it was 1.13 ± 0.11; in assay [1] (10 nM) it was 1.14 ± 0.18; in assay [1] (50 nM), 1.07 ± 0.25; in assay [1] (100 nM), 0.994 ± 0.14. In addition, the surviving fraction in assay [1] (500 nM) came to 0.833 ± 0.066; in assay [1] (1000 nM), 0.722 ± 0.021; in assay [2] (0.5 nM), 0.862 ± 0.13; in assay [2] (1 nM), 0.829 ± 0.15; in assay [2] (5 nM) it was 0.669 ± 0.051; in assay [2] (10 nM), 0.593 ± 0.044. For the same test system, the surviving fraction came out at 0.343 ± 0.029 in assay [2] (50 nM), 0.252 ± 0.04 in assay [2] (100 nM), 0.125 ± 0.02 in assay [2] (500 nM) and 0.126 ± 0.012 in assay [2] (1000 nM).
HMLE3 BREAST: the surviving fraction in assay [1] (0.5 nM) was 1.07 ± 0.043; in assay [1] (5 nM) it was 1.18 ± 0.081; in assay [1] (10 nM), 1.07 ± 0.089; in assay [1] (50 nM), 1.05 ± 0.054; in assay [1] (100 nM), 1.04 ± 0.12; in assay [1] (500 nM), 0.828 ± 0.062. Besides, the surviving fraction is 0.649 ± 0.046 in assay [1] (1000 nM); 0.898 ± 0.042 in assay [2] (0.5 nM); 0.856 ± 0.067 in assay [2] (1 nM); 0.856 ± 0.02 in assay [2] (5 nM); 0.7 ± 0.013 in assay [2] (10 nM); 0.776 ± 0.029 in assay [2] (50 nM). The surviving fraction turned out to be 0.716 ± 0.043 in assay [2] (100 nM), 0.588 ± 0.023 in assay [2] (500 nM) and 0.553 ± 0.033 in assay [2] (1000 nM).
